Test results taken from PubChem BioAssay AID248 (DTP/NCI, 2004).
Where “and” joins values, the source holds several entries; their conditions need not be identical. Equal entries are not always repeated. Inconclusive results and toxic doses are left out. Cut-off read from the data, not from the text of the source: active = T/C of 150% or more; inactive = T/C below 125%.

Tested on: L1210 leukemia ip in BDF1 mice, survival T/C
Test: NCI In Vivo Anticancer Drug Screen. Data for tumor model L1210 Leukemia (intraperitoneal) in B6D2F1 (BDF1) mice
Details: endpoint: mean survival time, higher = longer survival
In short: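 Transplantable tumor model; survival measured in treated vs vehicle control mice. Value = treated/control.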

[1] = dose: 100.0 mg/kg/injection, schedule: Q01DX001 (ip), vehicle: saline
[2] = dose: 200.0 mg/kg/injection, schedule: Q01DX001 (ip), vehicle: saline
[3] = dose: 400.0 mg/kg/injection, schedule: Q01DX001 (ip), vehicle: saline
[4] = dose: 100.0 mg/kg/injection, schedule: Q01DX009 (ip), vehicle: saline
[5] = dose: 100.0 mg/kg/injection, schedule: Q04DX003 (ip), vehicle: saline
[6] = dose: 200.0 mg/kg/injection, schedule: Q04DX003 (ip), vehicle: saline
[7] = dose: 100.0 mg/kg/injection, schedule: Q04DX002 (ip), vehicle: saline with Tween-80
[8] = dose: 200.0 mg/kg/injection, schedule: Q04DX002 (ip), vehicle: saline with Tween-80
[9] = dose: 400.0 mg/kg/injection, schedule: Q04DX002 (ip), vehicle: saline with Tween-80

Measured: T/C

O=C(O)c1ccccc1Br.[Ni]
inactive: dose: 3.0 mg/kg/injection, schedule: Q01DX009 (ip), vehicle: Klucel (hydroxypropylcellulose) (HPC) 91 % of control | dose: 6.0 mg/kg/injection, schedule: Q01DX009 (ip), vehicle: Klucel (hydroxypropylcellulose) (HPC) 94 % of control | dose: 12.0 mg/kg/injection, schedule: Q01DX009 (ip), vehicle: Klucel (hydroxypropylcellulose) (HPC) 94 % of control | dose: 12.5 mg/kg/injection, schedule: Q01DX001 (ip), vehicle: Klucel (hydroxypropylcellulose) (HPC) 97 % of control | dose: 25.0 mg/kg/injection, schedule: Q01DX001 (ip), vehicle: Klucel (hydroxypropylcellulose) (HPC) 93 % of control | dose: 25.0 mg/kg/injection, schedule: Q01DX009 (ip), vehicle: Klucel (hydroxypropylcellulose) (HPC) 88 % of control | dose: 50.0 mg/kg/injection, schedule: Q01DX001 (ip), vehicle: Klucel (hydroxypropylcellulose) (HPC) 103 % of control

NC(=O)NC12CC3CC(CC(C3)C1)C2
inactive: [1] 89 % of control | [2] 89 % of control | [3] 101 % of control

CC(C)C[As](C)(=O)O
inactive: dose: 66.0 mg/kg/injection, schedule: Q01DX009 (ip), vehicle: saline 107 % of control | [4] 115 % of control | dose: 150.0 mg/kg/injection, schedule: Q01DX009 (ip), vehicle: saline 94 % of control

CC(=O)Nc1ccc(O)c2ccccc12
inactive: dose: 100.0 mg/kg/injection, schedule: Q04DX002 (ip), vehicle: Klucel (hydroxypropylcellulose) (HPC) 92 % of control | dose: 200.0 mg/kg/injection, schedule: Q04DX002 (ip), vehicle: Klucel (hydroxypropylcellulose) (HPC) 89 % of control | dose: 400.0 mg/kg/injection, schedule: Q04DX002 (ip), vehicle: Klucel (hydroxypropylcellulose) (HPC) 99 % of control

OC(CNc1ccccc1)CN1CCCC1 (stereo not drawn)
inactive: [5] 89 % of control | [6] 94 % of control

O=C1CCC2OC(=O)C3CCCC1C23 (stereo not drawn)
inactive: [1] 103 % of control | [2] 97 % of control | [3] 101 % of control

C=CCNC(=S)Nc1ccc(OC(=O)Nc2ccc(Cl)c(Cl)c2)cc1
inactive: [7] 102 % of control | [8] 97 % of control | [9] 105 % of control

COC(=O)NNc1ccccc1C(=O)OC
inactive: [7] 88 % of control | [8] 88 % of control | [9] 98 % of control

N#CCc1ccc2c(c1)[nH]c1ccccc12
inactive: dose: 100.0 mg/kg/injection, schedule: Q04DX003 (ip), vehicle: Klucel (hydroxypropylcellulose) (HPC) 100 % of control | dose: 200.0 mg/kg/injection, schedule: Q04DX003 (ip), vehicle: Klucel (hydroxypropylcellulose) (HPC) 100 % of control | dose: 400.0 mg/kg/injection, schedule: Q04DX003 (ip), vehicle: Klucel (hydroxypropylcellulose) (HPC) 105 % of control

CC(C)=CC[P+](c1ccccc1)(c1ccccc1)c1ccccc1
inactive: dose: 3.13 mg/kg/injection, schedule: Q01DX009 (ip), vehicle: saline 111 % of control | dose: 6.25 mg/kg/injection, schedule: Q01DX009 (ip), vehicle: saline 106 % of control | dose: 12.5 mg/kg/injection, schedule: Q01DX009 (ip), vehicle: saline 100 % of control and 106 % of control | dose: 25.0 mg/kg/injection, schedule: Q01DX001 (ip), vehicle: saline 102 % of control | dose: 25.0 mg/kg/injection, schedule: Q01DX009 (ip), vehicle: saline 98 % of control | dose: 50.0 mg/kg/injection, schedule: Q01DX001 (ip), vehicle: saline 90 % of control | dose: 50.0 mg/kg/injection, schedule: Q01DX009 (ip), vehicle: saline 98 % of control and 90 % of control

COc1cccc(CC(N)=O)c1OC
inactive: [4] 97 % of control | [5] 95 % of control | dose: 200.0 mg/kg/injection, schedule: Q01DX009 (ip), vehicle: saline 90 % of control | [6] 92 % of control | dose: 400.0 mg/kg/injection, schedule: Q04DX003 (ip), vehicle: saline 97 % of control

CCN(CC)C(=S)[S][Bi]([S]C(=S)N(CC)CC)[S]C(=S)N(CC)CC
inactive: dose: 100.0 mg/kg/injection, schedule: Q01DX001 (ip), vehicle: steriod suspending solution 112 % of control | dose: 200.0 mg/kg/injection, schedule: Q01DX001 (ip), vehicle: steriod suspending solution 91 % of control | dose: 400.0 mg/kg/injection, schedule: Q01DX001 (ip), vehicle: steriod suspending solution 96 % of control

Cc1cn(C)c2nccnc12
inactive: dose: 25.0 mg/kg/injection, schedule: Q01DX009 (ip), vehicle: water 104 % of control | dose: 50.0 mg/kg/injection, schedule: Q01DX009 (ip), vehicle: water 110 % of control | dose: 100.0 mg/kg/injection, schedule: Q01DX009 (ip), vehicle: water 98 % of control
